Measured values: EP1669365A1, “Method for preparing enzymatic substrate analogs as inhibitors of bacterial heptosyl-transferases” (priority 2004, dated 2006)

Biological target: T1, WaaC (Escherichia coli, UniProt P24173)
T1 construct: made in house; host or cells: E. coli BL21 double mutant with the heptosyltransferase I and II genes deleted
Assay: WaaC IC50 fluorimetric in vitro heptosyltransferase assay (NADH fluorescence, pyruvate kinase/lactate dehydrogenase coupled)
Format: biochemical
Details: inhibitory activity on Waac enzymatic activity; 1nM purified WaaC, 3µM Re-LPS, pH 7.0
Description: A fluorimetric in vitro assay was set up to quantify the enzymatic activity of purified heptosyl transferase.Said fluorimetic assay is used to identify inhibitors and for measuring IC50 determinations.
WaaC IC50 assays are performed in black 96-well plates (Wallac) in a final volume of 100µL at pH 7.0 comprising: the inhibitor studied dissolved in 2µL DMSO at 10 different concentrations, 50mM HEPES, 10mM MgCl2, 50mM KCl, 0.1% Triton-), 3µM Re-LPS (Sigma, purified from Salmonella Minnesota), 1nM of purified WaaC, 5u/mL Pyruvate kinase (Sigma), 50µM Phosphoenolpyruvate (Sigma), 5u/mL Lactate dehydrogenase (Sigma) and 1.5µM NADH (Sigma). Fluorescence intensity of NADH (λex= 360nm, λem=520nm) is read once before enzyme addition (background), and is followed kinetically afterwards. Initial velocities are determined from the linear phase after background substraction. IC50 curves are fitted to a classical sigmoidal model with Hill slope.

T1 sequence (P24173 whole entry): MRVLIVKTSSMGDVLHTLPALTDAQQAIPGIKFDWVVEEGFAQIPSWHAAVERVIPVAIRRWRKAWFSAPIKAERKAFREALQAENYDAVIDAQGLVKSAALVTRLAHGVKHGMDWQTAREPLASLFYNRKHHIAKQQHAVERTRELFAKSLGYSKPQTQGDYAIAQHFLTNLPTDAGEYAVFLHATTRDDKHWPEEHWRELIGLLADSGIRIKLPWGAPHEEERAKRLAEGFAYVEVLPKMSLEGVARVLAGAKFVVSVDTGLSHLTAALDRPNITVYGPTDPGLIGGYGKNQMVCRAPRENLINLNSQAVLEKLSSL

“Adenosine 5'-diphospho-2-Deoxy-2-fluoro-6-L-glycero-β-D-heptoglucopyranoside” gave an IC50 of 57 µM.
